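Values below derive from 48-hour exposures of cells grown in 96-well plates, with endpoints linearly interpolated between the two concentrations bracketing the appropriate inhibition level. TGI marks complete inhibition of growth.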
Assays:
Experiment in all cases: DTP human tumour cell line panel, 48 h
OVCAR-5 ovarian = tested on: OVCAR-5 ovarian
SF-268 CNS = tested on: SF-268 CNS
KM12 colon = tested on: KM12 colon
HS 578T breast = tested on: HS 578T breast
UACC-62 melanoma = tested on: UACC-62 melanoma
NCI-H226 lung = tested on: NCI-H226 lung
U251 CNS = tested on: U251 CNS
IGROV1 ovarian = tested on: IGROV1 ovarian
HL-60(TB) leukemia = tested on: HL-60(TB) leukemia
HOP-62 NSCLC = tested on: HOP-62 NSCLC
EKVX NSCLC = tested on: EKVX NSCLC
A549 NSCLC = tested on: A549 NSCLC
OVCAR-4 ovarian = tested on: OVCAR-4 ovarian
DU-145 prostate = tested on: DU-145 prostate
SF-539 CNS = tested on: SF-539 CNS
SR leukemia = tested on: SR leukemia
RPMI-8226 leukemia = tested on: RPMI-8226 leukemia
SK-MEL-28 melanoma = tested on: SK-MEL-28 melanoma
HT29 colon = tested on: HT29 colon
SNB-75 CNS = tested on: SNB-75 CNS
NCI-H23 lung = tested on: NCI-H23 lung
OVCAR-3 ovarian = tested on: OVCAR-3 ovarian
MDA-MB-435 = tested on: MDA-MB-435
HCT-15 colon = tested on: HCT-15 colon
K-562 leukemia = tested on: K-562 leukemia
LOX IMVI melanoma = tested on: LOX IMVI melanoma
SW-620 colon = tested on: SW-620 colon
CAKI-1 renal = tested on: CAKI-1 renal
CCRF-CEM leukemia = tested on: CCRF-CEM leukemia
OVCAR-8 ovarian = tested on: OVCAR-8 ovarian
COLO 205 colon = tested on: COLO 205 colon
SK-MEL-2 melanoma = tested on: SK-MEL-2 melanoma
UO-31 renal = tested on: UO-31 renal
ACHN renal = tested on: ACHN renal
TK-10 renal = tested on: TK-10 renal
BT-549 breast = tested on: BT-549 breast
SK-OV-3 ovarian = tested on: SK-OV-3 ovarian
UACC-257 melanoma = tested on: UACC-257 melanoma
M14 melanoma = tested on: M14 melanoma
SK-MEL-5 melanoma = tested on: SK-MEL-5 melanoma
NCI-H522 lung = tested on: NCI-H522 lung
T-47D breast = tested on: T-47D breast
MALME-3M melanoma = tested on: MALME-3M melanoma
SNB-19 CNS = tested on: SNB-19 CNS
HCT-116 colon = tested on: HCT-116 colon
SF-295 CNS = tested on: SF-295 CNS
NCI-H460 lung = tested on: NCI-H460 lung
HCC-2998 colon = tested on: HCC-2998 colon
HOP-92 NSCLC = tested on: HOP-92 NSCLC
MCF7 breast = tested on: MCF7 breast
MOLT-4 leukemia = tested on: MOLT-4 leukemia
A498 renal = tested on: A498 renal
PC-3 prostate = tested on: PC-3 prostate
MDA-N = tested on: MDA-N
RXF 393 renal = tested on: RXF 393 renal
786-0 renal = tested on: 786-0 renal
SN12C renal = tested on: SN12C renal
MDA-MB-231 breast = tested on: MDA-MB-231 breast
NCI/ADR-RES ovarian = tested on: NCI/ADR-RES ovarian

SMILES: O=C(Nc1ccc([N+](=O)[O-])cc1)Nn1cnnc1
- TGI (OVCAR-5 ovarian): > 100 µM
- TGI (SF-268 CNS): > 100 µM
- TGI (KM12 colon): 72.6 µM
- TGI (HS 578T breast): 93.2 µM
- TGI (UACC-62 melanoma): > 100 µM
- TGI (NCI-H226 lung): 2.31 µM
- TGI (U251 CNS): > 100 µM
- TGI (IGROV1 ovarian): > 100 µM
- TGI (HL-60(TB) leukemia): > 100 µM
- TGI (HOP-62 NSCLC): > 100 µM
- TGI (EKVX NSCLC): > 100 µM
- TGI (A549 NSCLC): > 100 µM
- TGI (OVCAR-4 ovarian): 43.2 µM
- TGI (DU-145 prostate): > 100 µM
- TGI (SF-539 CNS): 73.9 µM
- TGI (SR leukemia): > 100 µM
- TGI (RPMI-8226 leukemia): > 100 µM
- TGI (SK-MEL-28 melanoma): > 100 µM
- TGI (HT29 colon): > 100 µM
- TGI (SNB-75 CNS): > 100 µM
- TGI (NCI-H23 lung): 48.8 µM
- TGI (OVCAR-3 ovarian): 72.8 µM
- TGI (MDA-MB-435): > 100 µM
- TGI (HCT-15 colon): > 100 µM
- TGI (K-562 leukemia): > 100 µM
- TGI (LOX IMVI melanoma): > 100 µM
- TGI (SW-620 colon): > 100 µM
- TGI (CAKI-1 renal): > 100 µM
- TGI (CCRF-CEM leukemia): > 100 µM
- TGI (OVCAR-8 ovarian): 67 µM
- TGI (COLO 205 colon): > 100 µM
- TGI (SK-MEL-2 melanoma): > 100 µM
- TGI (UO-31 renal): > 100 µM
- TGI (ACHN renal): > 100 µM
- TGI (TK-10 renal): > 100 µM
- TGI (BT-549 breast): 69.7 µM
- TGI (SK-OV-3 ovarian): > 100 µM
- TGI (UACC-257 melanoma): > 100 µM
- TGI (M14 melanoma): > 100 µM
- TGI (SK-MEL-5 melanoma): > 100 µM
- TGI (NCI-H522 lung): > 100 µM
- TGI (T-47D breast): > 100 µM
- TGI (MALME-3M melanoma): 80 µM
- TGI (SNB-19 CNS): > 100 µM
- TGI (HCT-116 colon): > 100 µM
- TGI (SF-295 CNS): 63.4 µM
- TGI (NCI-H460 lung): > 100 µM
- TGI (HCC-2998 colon): > 100 µM
- TGI (HOP-92 NSCLC): > 100 µM
- TGI (MCF7 breast): > 100 µM
- TGI (MOLT-4 leukemia): > 100 µM
- TGI (A498 renal): > 100 µM
- TGI (PC-3 prostate): > 100 µM
- TGI (MDA-N): > 100 µM

SMILES: C[C@]12C=CC(=O)C=C1CC[C@@H]1[C@@H]2CC[C@@]2(C)[C@H]1CC[C@]2(O)C(N)=O
- TGI (OVCAR-5 ovarian): > 100 µM
- TGI (SF-268 CNS): > 100 µM
- TGI (KM12 colon): > 100 µM
- TGI (HS 578T breast): > 100 µM
- TGI (RXF 393 renal): > 100 µM
- TGI (UACC-62 melanoma): > 100 µM
- TGI (NCI-H226 lung): > 100 µM
- TGI (U251 CNS): > 100 µM
- TGI (IGROV1 ovarian): > 100 µM
- TGI (HL-60(TB) leukemia): > 100 µM
- TGI (HOP-62 NSCLC): > 100 µM
- TGI (EKVX NSCLC): > 100 µM
- TGI (A549 NSCLC): > 100 µM
- TGI (OVCAR-4 ovarian): > 100 µM
- TGI (DU-145 prostate): > 100 µM
- TGI (786-0 renal): > 100 µM
- TGI (SF-539 CNS): > 100 µM
- TGI (SR leukemia): > 100 µM
- TGI (RPMI-8226 leukemia): > 100 µM
- TGI (SK-MEL-28 melanoma): > 100 µM
- TGI (HT29 colon): > 100 µM
- TGI (SNB-75 CNS): > 100 µM
- TGI (SN12C renal): > 100 µM
- TGI (NCI-H23 lung): > 100 µM
- TGI (OVCAR-3 ovarian): > 100 µM
- TGI (MDA-MB-231 breast): > 100 µM
- TGI (MDA-MB-435): > 100 µM
- TGI (HCT-15 colon): > 100 µM
- TGI (K-562 leukemia): > 100 µM
- TGI (LOX IMVI melanoma): > 100 µM
- TGI (SW-620 colon): > 100 µM
- TGI (CCRF-CEM leukemia): > 100 µM
- TGI (OVCAR-8 ovarian): > 100 µM
- TGI (COLO 205 colon): > 100 µM
- TGI (SK-MEL-2 melanoma): > 100 µM
- TGI (UO-31 renal): > 100 µM
- TGI (ACHN renal): > 100 µM
- TGI (TK-10 renal): > 100 µM
- TGI (BT-549 breast): > 100 µM
- TGI (SK-OV-3 ovarian): > 100 µM
- TGI (UACC-257 melanoma): > 100 µM
- TGI (M14 melanoma): > 100 µM
- TGI (SK-MEL-5 melanoma): > 100 µM
- TGI (NCI-H522 lung): > 100 µM
- TGI (T-47D breast): > 100 µM
- TGI (NCI/ADR-RES ovarian): > 100 µM
- TGI (MALME-3M melanoma): > 100 µM
- TGI (SNB-19 CNS): > 100 µM
- TGI (HCT-116 colon): > 100 µM
- TGI (SF-295 CNS): > 100 µM
- TGI (NCI-H460 lung): > 100 µM
- TGI (HCC-2998 colon): > 100 µM
- TGI (HOP-92 NSCLC): > 100 µM
- TGI (MOLT-4 leukemia): > 100 µM
- TGI (A498 renal): > 100 µM
- TGI (PC-3 prostate): > 100 µM
- TGI (MDA-N): > 100 µM
